Type in all cases: functional, cell-based
Assay [1] deals with HeLa. The experiment in a line: Antiproliferative activity against human HeLa cells assessed as reduction in cell viability incubated for 72 hrs by SRB assay. On the technique in general: The SRB assay estimates cell density from bound dye.
Assay [2] concerns HCT-116. The experiment in a line: Antiproliferative activity against human HCT-116 cells assessed as reduction in cell viability incubated for 72 hrs by SRB assay. The note with it: HCT-116, 72 h.
For assay [3], the system named is SW480. Put plainly: Antiproliferative activity against human SW480 cells assessed as reduction in cell viability incubated for 72 hrs by SRB assay. To be noted: SW480, 72 h.

Bounds are passed on as bounds.

In the case of `COc1ccc2[nH]c3c([N+](=O)[O-])ccc(NCc4cccnc4)c3c(=O)c2c1`, the IC50 in assay [1], in assay [2] and in assay [3] was > 20 µM in each case.

For `Nc1ccc(NCCc2cccc(C(F)(F)F)c2)c2c(=O)c3cc(O)ccc3[nH]c12`, the half-maximal inhibitory concentration (IC50) is > 20 µM in assay [1], > 50 µM in assay [2] and > 20 µM in assay [3].

`O=c1c2cc(F)ccc2[nH]c2c([N+](=O)[O-])ccc(NCc3ccc(O)cc3)c12`: the concentration for half-maximal inhibition (IC50) is 10.5 µM in assay [1], > 20 µM in assay [2] and > 20 µM in assay [3].

In the case of `COc1ccc2[nH]c3c([N+](=O)[O-])ccc(NCCc4cccc(C(F)(F)F)c4)c3c(=O)c2c1`, the values for the IC50 in assay [1], in assay [2] and in assay [3] were 12.4 µM, > 20 µM and 12.4 µM, respectively.

For the compound `COc1ccc2[nH]c3c(N)ccc(NCCc4ccc(OC)c(OC)c4)c3c(=O)c2c1`, the IC50 in assay [1] came out at 8.8 µM; in assay [2], 8.8 µM; in assay [3], 15.6 µM.

For `COc1ccc2[nH]c3c(N)ccc(NCCc4cccc(C(F)(F)F)c4)c3c(=O)c2c1`, the IC50 in assay [1], in assay [2] and in assay [3] was > 20 µM throughout.

In the case of `COc1ccc2[nH]c3c([N+](=O)[O-])ccc(Nc4ccc(N5CCOCC5)cc4)c3c(=O)c2c1`, the IC50 in assay [1], in assay [2] and in assay [3] was > 20 µM each time.

In the case of `O=c1c2cc(O)ccc2[nH]c2c([N+](=O)[O-])ccc(Nc3ccc(N4CCOCC4)cc3)c12`, the IC50 in assay [1] is 6.4 µM; in assay [2] it was 5.9 µM; in assay [3], 2.4 µM.

For the compound `COc1ccc2[nH]c3c([N+](=O)[O-])ccc(NCCc4ccc(OC)c(OC)c4)c3c(=O)c2c1`, the values for the IC50 in assay [1], in assay [2] and in assay [3] were 12.8 µM, > 20 µM and 19.7 µM, respectively.

For `CCN(CC)CCNc1ccc2ncn3c4ccc(O)cc4c(=O)c1c23` [C-1311], the results for the IC50 in assay [2] and in assay [3] were 0.3 µM and 0.48 µM, respectively.

For the compound `COc1ccc(CCNc2ccc([N+](=O)[O-])c3[nH]c4ccc(O)cc4c(=O)c23)cc1OC`, the IC50 in assay [1], in assay [2] and in assay [3] was > 20 µM in each case.

Take `COc1ccc2[nH]c3c(N)ccc(NCCc4ccc(O)c(O)c4)c3c(=O)c2c1`: the IC50 in assay [1], in assay [2] and in assay [3] was > 50 µM each time.

Regarding `COc1ccc(CCNc2ccc(N)c3[nH]c4ccc(O)cc4c(=O)c23)cc1OC`, the IC50 in assay [1] is 17.2 µM; in assay [2], > 50 µM; in assay [3], > 50 µM.

As to `COc1ccc2[nH]c3c([N+](=O)[O-])ccc(Nc4ccc(N5CCN(C)CC5)cc4)c3c(=O)c2c1`, the IC50 in assay [1], in assay [2] and in assay [3] was > 20 µM each time.

`O=c1c2cc(O)ccc2[nH]c2c([N+](=O)[O-])ccc(NCc3ccc(O)cc3)c12`: the half-inhibitory concentration (IC50) in assay [1], in assay [2] and in assay [3] was > 20 µM throughout.

With `COc1ccc2[nH]c3c([N+](=O)[O-])ccc(NCc4cccs4)c3c(=O)c2c1`, the IC50 in assay [1], in assay [2] and in assay [3] was > 20 µM each time.

With `COc1ccc2[nH]c3c(N)ccc(Nc4ccc(N5CCOCC5)cc4)c3c(=O)c2c1`, the IC50 was 17.5 µM in assay [1], 17.8 µM in assay [2] and 3.8 µM in assay [3].

As to `COc1ccc2[nH]c3c([N+](=O)[O-])ccc(NCc4ccc(O)cc4)c3c(=O)c2c1`, the 50% inhibitory concentration (IC50) is > 20 µM in assay [1], 12.4 µM in assay [2] and > 20 µM in assay [3].

Take `COc1ccc2[nH]c3c([N+](=O)[O-])ccc(NCc4ccco4)c3c(=O)c2c1`: the IC50 in assay [1], in assay [2] and in assay [3] was > 20 µM throughout.

Take `O=c1c2cc(O)ccc2[nH]c2c([N+](=O)[O-])ccc(NCc3ccc(F)cc3)c12`: the IC50 in assay [1], in assay [2] and in assay [3] was > 20 µM in each case.

By IC50 is commonly meant the midpoint of a concentration-inhibition curve.

For the origin of these results see ChEMBL document CHEMBL4673288, “Structure-activity relationship of novel acridone derivatives as antiproliferative agents” (Bioorg Med Chem, 2021).
